The target of this assay is Nitric oxide synthase 1 (Homo sapiens, UniProt P29475).
Sequence of Nitric oxide synthase 1 (P29475 whole entry): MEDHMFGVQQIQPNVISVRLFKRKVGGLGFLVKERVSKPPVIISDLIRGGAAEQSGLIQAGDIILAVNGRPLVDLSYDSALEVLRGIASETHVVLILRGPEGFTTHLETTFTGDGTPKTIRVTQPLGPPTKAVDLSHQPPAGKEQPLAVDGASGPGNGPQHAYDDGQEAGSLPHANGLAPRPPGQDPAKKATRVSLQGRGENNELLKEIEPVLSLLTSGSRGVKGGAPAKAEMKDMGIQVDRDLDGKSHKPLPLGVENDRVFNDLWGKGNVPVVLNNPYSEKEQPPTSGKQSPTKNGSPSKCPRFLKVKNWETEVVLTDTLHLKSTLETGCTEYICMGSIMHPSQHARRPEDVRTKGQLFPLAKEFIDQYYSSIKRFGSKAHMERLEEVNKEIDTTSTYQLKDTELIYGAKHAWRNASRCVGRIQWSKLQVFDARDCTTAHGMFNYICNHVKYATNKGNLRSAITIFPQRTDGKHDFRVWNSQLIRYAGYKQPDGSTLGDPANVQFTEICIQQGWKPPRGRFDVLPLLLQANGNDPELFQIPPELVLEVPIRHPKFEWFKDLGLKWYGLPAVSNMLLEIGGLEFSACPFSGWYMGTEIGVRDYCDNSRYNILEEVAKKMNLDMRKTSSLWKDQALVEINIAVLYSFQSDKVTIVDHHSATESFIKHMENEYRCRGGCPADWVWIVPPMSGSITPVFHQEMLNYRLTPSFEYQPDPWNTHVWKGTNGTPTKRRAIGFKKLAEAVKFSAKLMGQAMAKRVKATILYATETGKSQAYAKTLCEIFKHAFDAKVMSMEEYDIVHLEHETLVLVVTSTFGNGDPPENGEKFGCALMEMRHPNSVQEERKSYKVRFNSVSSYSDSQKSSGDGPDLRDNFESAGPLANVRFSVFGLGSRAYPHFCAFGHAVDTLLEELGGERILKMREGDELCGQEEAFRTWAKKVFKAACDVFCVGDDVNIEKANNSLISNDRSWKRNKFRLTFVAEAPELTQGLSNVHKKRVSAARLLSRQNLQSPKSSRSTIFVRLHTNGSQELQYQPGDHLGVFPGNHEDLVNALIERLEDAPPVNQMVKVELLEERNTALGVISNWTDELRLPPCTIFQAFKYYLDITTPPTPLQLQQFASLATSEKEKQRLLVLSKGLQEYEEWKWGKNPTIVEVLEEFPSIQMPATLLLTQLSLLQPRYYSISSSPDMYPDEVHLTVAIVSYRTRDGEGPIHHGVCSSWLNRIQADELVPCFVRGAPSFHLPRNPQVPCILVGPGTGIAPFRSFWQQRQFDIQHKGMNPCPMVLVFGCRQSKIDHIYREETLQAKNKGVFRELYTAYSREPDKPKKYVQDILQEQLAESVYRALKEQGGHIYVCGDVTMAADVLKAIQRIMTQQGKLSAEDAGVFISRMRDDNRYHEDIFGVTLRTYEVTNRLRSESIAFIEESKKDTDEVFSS

Description: Inhibition of nNOS assessed as conversion of L-[3H]arginine to L-[3H]citrulline

As to `C=CCC(=N)NCCC[C@H](N)C(=O)O`, the Ki (as a rule, a measure of affinity in units of concentration, obtained from inhibition or displacement) is 0.1 µM.
Take `N=C(N)SCCc1cccc(CCSC(=N)N)c1`: the Ki is 0.25 µM.
The value for `O=C(Cn1ccnc1)c1ccc([N+](=O)[O-])cc1` was 105 µM; that for `NC(=O)[C@@H]1C[C@@H](NC(=O)[C@@H](N)CCC/N=C(\N)N[N+](=O)[O-])CN1` was 0.1 µM; that for `c1ccc(-n2ccnc2)cc1` was 430 µM.
For `NC1=NCCS1` the value was 0.41 µM; for `CCCC(=N)NCCC[C@H](N)C(=O)O`, 5.3 µM; for `N=C(NCC1CC1)n1cccn1`, 10 µM.
In turn, `N=C(N)SCCc1ccc(CCSC(=N)N)cc1` gave a Ki of 0.016 µM.
For `NCCCC/N=C(\N)n1cccn1` the value was 6 µM; for `N[C@@H](CCCCCCc1cnc[nH]1)C(=O)O`, 150 µM; for `CNC(=N)NN`, 14 µM.
For `Cc1nccn1CC(=O)c1ccc([N+](=O)[O-])cc1` the value was 74 µM; for `CC(=N)Nc1cccc(CNO)c1`, 2.1 µM.
The value for `N[C@@H](CCCc1cnc[nH]1)C(=O)O` was 2 µM; that for `N[C@@H](CCCCCc1cncn1-c1ccccc1)C(=O)O` was 70 µM.
`Cc1nc(N)sc1C` yielded a Ki of 0.38 µM.
Compound `Cc1cc(C)n(C(=N)N)n1` displayed an inhibition constant Ki of 350 µM.
The value for `CC(C)(C)SC(=N)N` was 0.62 µM; that for `Cc1cnn(C(=N)N)c1` was 12 µM; that for `Brc1ccc(OCCCCn2ccnc2)cc1` was 32 µM.
The value for `CC(=N)Nc1cccc(CCN)c1` was 1 µM; that for `CC(=N)Nc1cccc(N)c1` was 14 µM.
As for `N=C(N)SCCN`, the Ki is 1.8 µM.
For `CCC/N=C(\N)n1cccn1` the value was 3 µM; for `c1ccc(-c2ccc(CCn3ccnc3)cc2)cc1`, 175 µM; for `Cc1ccn(C(=N)N)n1`, 8 µM.
`CC(=N)Nc1cccc(C(=N)N)c1`: the affinity, expressed as Ki, was 0.57 µM.
`CC(=N)Nc1cccc(CN=C(C)N)c1` returned an inhibitory constant (Ki) of 0.37 µM. Compared with the last compound, the Ki is about 1.5-fold lower.
For the compound `CCCCC/N=C(\N)n1cccn1`, the Ki stood at 60 µM.
The compound `N[C@@H](CCCCCc1cnc[nH]1)C(=O)O` came in with a Ki of 2 µM.
`O=C(Cn1ccnc1)c1ccccc1[N+](=O)[O-]` came in with a Ki of 375 µM.
For `Brc1cccc(OCCCCn2ccnc2)c1` the value was 60 µM; for `Brc1ccc(OCCn2ccnc2)cc1`, 125 µM; for `FC(F)(F)c1ccc(OCCn2ccnc2)cc1`, 45 µM.
Consider `CC(=N)Nc1cccc(CNCc2cccc(C(C)=N)c2)c1`, for which the affinity, expressed as Ki, was 0.042 µM.
The value for `CC(=N)Nc1cccc(CSC(=N)N)c1` was 0.36 µM; that for `N=C(Nc1cccc(CN)c1)n1cccn1` was 2 µM.
In turn, `CC(=N)Nc1cccc(NC(C)=N)c1` showed an inhibition constant Ki of 1.5 µM.
For `OC(Cn1ccnc1)c1ccc(-c2ccccc2)cc1` (centres undefined), the Ki was determined as 125 µM.
`CCCC/N=C(\N)n1cccn1` gave a Ki of 14 µM.
For `CC(C)SC(=N)N` the value was 0.037 µM; for `CCCSC(=N)N`, 0.63 µM.
Take `N=C(N)SCCc1ccccc1`: the affinity corresponds to a Ki of 0.8 µM.
For `CC(C)C/N=C(\N)n1cccn1` the value was 45 µM; for `FC(F)(F)c1ccc(OCCCn2ccnc2)cc1`, 75 µM; for `Nc1nc(CCc2ccccc2)cs1`, 0.89 µM.
`Brc1ccc(OCCCCCCn2ccnc2)cc1` gave a Ki of 57 µM. This Ki lies about 64-fold higher than the previous one.
With `Brc1ccc(OCCCn2ccnc2)cc1`, the Ki worked out at 125 µM. This Ki is about 2.2-fold higher than that of the compound before.
The value for `N[C@@H](CCCCc1cnc[nH]1)C(=O)O` was 65 µM.
The value for `N[C@@H](CCc1cnc[nH]1)C(=O)O` was 170 µM; that for `N[C@@H](CCCc1cncn1-c1ccccc1)C(=O)O` was 80 µM; that for `N[C@@H](CCCCc1cncn1-c1ccccc1)C(=O)O` was 100 µM.
The value for `CNCc1cccc(NC(C)=N)c1` was 0.056 µM; that for `CC(=N)Nc1cccc(S(N)(=O)=O)c1` was 29 µM.
Take `N=C(N)SCc1ccc(CSC(=N)N)cc1`: the inhibitory constant (Ki) turned out to be 0.1 µM.
`N=C(N)SCCCc1cccc(CCCSC(=N)N)c1` gave a Ki of 4.8 µM.
For the compound `Cc1cnc(N)s1`, the affinity, expressed as Ki, was 1.1 µM. This Ki is about 4.4-fold lower than that of the compound before.
For `CC(=N)Nc1cccc(CN2CCOCC2)c1` the value was 2.8 µM; for `N=C(NC1CC1)n1cccn1`, 50 µM.
The value for `CC(=N)Nc1cccc(CN(C)C)c1` was 0.17 µM.
For `FC(F)(F)c1ccc(OCCCCn2ccnc2)cc1` the value was 94 µM; for `CC(=N)Nc1cccc(NN)c1`, 1.1 µM.
The compound `Brc1ccccc1OCCCCn1ccnc1` gave an inhibitory constant (Ki) of 180 µM.
`N=C(N)SCCCc1ccccc1` showed a Ki of 14 µM.
Take `Cc1csc(N)n1`: the affinity corresponds to a Ki of 10 µM. The Ki values of the last two compounds are within 1.5-fold of each other.
In turn, `N=C(NN)Nc1ccccc1` displayed an inhibitory constant (Ki) of 4 µM.
In turn, `CCNC(=N)NN` displayed a Ki of 1 µM.
For `CCC(=N)NCCC[C@H](N)C(=O)O` the value was 3 µM; for `CC(C)=CCSC(=N)N`, 2 µM; for `FC(F)(F)c1ccc(OCCCCCCn2ccnc2)cc1`, 35 µM.
For `N=C(NCCC[C@H](N)C(=O)N[C@@H]1CN[C@@H](C(N)=O)C1)N[N+](=O)[O-]` the value was 1.1 µM; for `N=C(NN)NO`, 0.68 µM; for `Nc1nccs1` [AMINOTHIAZOLE], 12 µM.
With `N=C(N)SCc1ccccc1` [BENZYL CARBAMIMIDOTHIOATE], the Ki was found to be 14 µM. This Ki and that of the compound before are within 1.5-fold of each other.
For `CCSC(=N)N` [ETHYLISOTHIOUREA], the affinity corresponds to a Ki of 0.029 µM.
The compound `c1c[nH]cn1` [IMIDAZOLE] yielded a Ki of 175 µM. This Ki lies about 6000-fold higher than the previous one.
The value for `N=C(N)NN` [PIMAGEDINE] was 3.3 µM; that for `N=C(N)n1cccn1` [PRAXADINE] was 0.4 µM.

Values taken from ChEMBL document CHEMBL1150384, “Design, synthesis, and evaluation of potential inhibitors of nitric oxide synthase” (Bioorg Med Chem, 2008).
